Entries after “also recorded” stand apart in the source; their conditions may differ.
Legend:
MDA-MB-468 cells = test: Proliferation assay, MDA-MB-468; format: cell-based
Protocol: (§2) Cells were plated at a low density in 96 or 24 well plates in serine containing media. The following day, media was aspirated, cells were washed with PBS, and fresh serine replete or deplete media containing drug (15 μM, 30 μM) or vehicle (DMSO) was added. Cells were grown for 3 to 5 days, with drug and media changed daily before assaying relative cell numbers.

PHGDH [1] = target: T1, PHGDH (Homo sapiens, UniProt O43175); test: PHGDH assay (NADH fluorescence, PSAT1 coupled); format: biochemical; set-up: His6; made in house; host or cells: BL21 E. coli
T1 sequence (O43175 1-533): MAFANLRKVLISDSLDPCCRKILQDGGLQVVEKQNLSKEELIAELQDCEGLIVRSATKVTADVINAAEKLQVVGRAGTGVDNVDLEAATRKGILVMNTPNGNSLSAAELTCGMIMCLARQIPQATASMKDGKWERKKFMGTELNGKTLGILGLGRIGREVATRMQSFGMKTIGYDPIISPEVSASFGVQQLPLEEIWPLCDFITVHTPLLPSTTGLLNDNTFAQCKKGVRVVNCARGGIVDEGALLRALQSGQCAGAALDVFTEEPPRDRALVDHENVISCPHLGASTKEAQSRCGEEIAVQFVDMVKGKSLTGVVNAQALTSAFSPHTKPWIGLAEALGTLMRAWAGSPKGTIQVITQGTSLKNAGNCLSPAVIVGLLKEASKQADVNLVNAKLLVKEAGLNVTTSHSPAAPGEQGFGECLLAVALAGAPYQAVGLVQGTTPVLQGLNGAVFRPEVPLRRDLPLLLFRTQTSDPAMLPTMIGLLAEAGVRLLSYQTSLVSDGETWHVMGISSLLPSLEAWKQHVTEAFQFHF
Protocol: (§3) PHGDH activity was measured in 96-well plates by monitoring NADH fluorescence (Ex340 nm/Em460 nm) over time. PSAT1 was included to prevent product inhibition of PHGDH.

MCF7 cells = test: Proliferation assay, MCF7; format: cell-based
Protocol: as §2

PHGDH [2] = target: T1, PHGDH; conditions: BS3 cross-linking, SDS-PAGE
From the text: (§4) Samples were run on SDS-PAGE and colloidal coomassie stained (Bio-Rad).

MDH1 = target: T2, MDH1 (Homo sapiens, UniProt P40925); test: MDH1 assay (kit, recombinant enzyme); format: biochemical; conditions: at concentrations consistent with the PHGDH IC50
T2 construct: purchased Sigma SRP6103
T2 sequence (P40925 1-334): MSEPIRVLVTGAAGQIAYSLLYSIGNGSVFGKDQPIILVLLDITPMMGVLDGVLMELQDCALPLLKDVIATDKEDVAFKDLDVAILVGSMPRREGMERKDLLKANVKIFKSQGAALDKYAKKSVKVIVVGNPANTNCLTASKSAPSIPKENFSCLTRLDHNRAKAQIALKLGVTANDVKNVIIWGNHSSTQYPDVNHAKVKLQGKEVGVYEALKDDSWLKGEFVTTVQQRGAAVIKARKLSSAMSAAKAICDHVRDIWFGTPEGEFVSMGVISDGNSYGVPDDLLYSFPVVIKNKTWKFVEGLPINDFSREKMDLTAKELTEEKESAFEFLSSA
Protocol: (§1) Enzyme activities were assayed using kits (LDH: Sigma MAK06; MDH1: Sigma MAK196-1KT) according to the manufacturer's instructions with commercially available recombinant enzyme (LDH: Sigma 59747; MDH1: Sigma SRP6103).

[3] = tested on: MDA-MB-468 (468) breast cancer cells; test: LC-MS/MS metabolite profiling versus PHGDH knockdown; format: cell-based; conditions: 30 μM, 24 hours
Protocol: MDA-MB-468 (468) breast cancer cells (PHGDH amplified) were grown in DMEM supplemented with FBS (10%), penicillin, and streptomycin. 468 cells stably expressing PHGDH knockdown constructs were generated by infecting 468 cells with lentivirus harboring pLKO.1 shRNAs against PHGDH (sh29) or (sh31) and a nontargeting control (shGFP). Following infections, cells were selected for 2 days using puromycin prior to seeding in 10 cm plates for the experiment. PHGDH knockdown cells (sh29 and sh31) were seeded in 10 cm plates, each in triplicate, and shGFP cells in sextuplet. […] After 24 hours of treatment, the media were aspirated, and cells were washed with cold PBS prior to flash freezing. Subsequently, polar metabolites were extracted with 80% methanol for 30 minutes, scraped, transferred to Eppendorf tubes, centrifuged to remove insoluble matter, and dried. […] Briefly, samples were injected and analyzed using a 5500 QTRAP triple quadrupole mass spectrometer (AB/Sciex) coupled to a Prominence UFLC system (Shimadzu). Approximately 250 metabolites were analyzed by single reaction monitoring (SRM).

[4] = target: truncated form of PHGDH, which lacks the C-terminal domain (Homo sapiens, UniProt O43175)
Protocol: as §3

Carney cells = test: Acute drug treatment with 13C6-glucose tracing (GCMS, LC-MS/MS); format: cell-based; conditions: acute treatment; for serine labeling: dose response
Protocol: (§5) Carney cells acclimated to growth in MEM (Corning) were plated at 9×10^5 cells per 6 cm dish the night before. The following morning, media was replaced with fresh media containing (1) (1 μM, 15 μM, 30 μM) or vehicle control (DMSO) for 1h. Media was then aspirated, cells were washed with PBS, and fresh glucose free MEM (Gibco) supplemented with ^13C6-glucose (3 g/L, Cambridge Isotopes) and 10% dialyzed FBS containing drug or DMSO was added. After 2h, cells were quickly washed with cold PBS on ice and flash frozen. Polar metabolites were extracted as in the GCMS methods.
(§6) Polar metabolites were extracted with 2 ml MeOH/H2O (4:1) for 30 min on dry ice, scraped, transferred to 2 ml tubes, centrifuged (30 min, 15000 rpm), and the supernatants dried under vacuum. Samples were derivatized as previously described and analyzed on an Agilent 6890 GC instrument. Metabolite quantification was inferred from a standard curve and fractional enrichment of ^13C in metabolites was corrected for the natural abundance of ^13C and ^15N.
(§7) Polar metabolites were extracted and dried as in the GCMS method. Samples were resuspended in 15 μl of HPLC grade water. 5 μl of each sample was injected and analyzed using a 5500 QTRAP triple quadrupole mass spectrometer (AB/Sciex) coupled to a Prominence UFLC system (Shimadzu) as reported previously.
(§8) Newly synthesized serine has a mass-shift of 3 (M+3) due to the incorporation of glucose-derived ^13C via 3-PG. The kinetics of serine labeling were investigated.

cells = test: as above; format: cell-based; conditions: LC-MS/MS, greater panel of metabolites
Protocol: as §5, §6, §7, §8

[5] = tested on: MDA-MB-468, MDA-MB-436, HCC70, and Hs578T; test: cells; conditions: read-out: growth inhibition
Protocol: as §2

[6] = tested on: lactate dehydrogenase (LDH); test: LDH assay (kit, recombinant enzyme); format: biochemical; conditions: at concentrations consistent with the PHGDH IC50 / drug concentrations used in cells
Protocol: as §1

LDH = test: Cross-linking assay, LDH; conditions: BS3 cross-linking, SDS-PAGE
From the text: as §4

Row | potency against and selectivity for PHGDH, acid derivative versus parent (PHGDH [1]; in vitro) | Compound | effect on proliferation (MDA-MB-468 cells) | sensitivity of proliferation to drug (MCF7 cells; serine deplete conditions) | sensitivity of proliferation to drug (MCF7 cells; serine replete conditions) | PHGDH oligomerization state (PHGDH [2]) | effect on MDH1 (MDH1) | purine metabolites (AMP, dAMP, IMP, GDP, dGDP, GMP levels) [3] | decrease of intracellular serine levels ([3]; normalized to control treatment) | inhibition of truncated PHGDH [4] | serine labeling (Carney cells; 15 μM) | serine labeling (Carney cells; 30 μM) | perturbations in labeling (3-PG, pyruvate, lactate versus serine) (Carney cells; GCMS) | glycolytic metabolites (cells) | inhibition at 30 µM [5] | time dependence of onset of inhibition (PHGDH [1]; increasing pre-incubation time of drug and PHGDH) | mode of inhibition (PHGDH [1]; with respect to both substrates, decreasing Vmax) | effect on lactate dehydrogenase (LDH) [6] | LDH oligomerization state (LDH)
1 | equally potent | Cc1c(C(=O)O)sc(NC(=O)c2ccco2)c1SC#N [carboxylic acid derivative, 5-(furan-2-carboxamido)-3-methyl-4-thiocyanatothiophene-2-carboxylic Acid] | not effective | – | – | – | – | – | – | – | – | – | – | – | – | – | – | – | –
2 | – | CCOC(=O)c1sc(NC(=O)c2ccco2)c(SC#N)c1C [Compound (1), Ethyl 5-(furan-2-carboxamido)-3-methyl-4-thiocyanatothiophene-2-carboxylate] | – | partially sensitive | insensitive | shifted the PHGDH equilibrium from the tetrameric to the dimeric state | no effect | down regulated | 50% | still inhibited | trended towards a decrease | significantly decreased | specific to serine | unperturbed | 35 to 60% | progressively more potent | non-competitive | no effect; also recorded: does not inhibit | No such effect

— patent US10494365B2, “Small molecule inhibitor of 3-phosphoglycerate dehydrogenase and uses thereof” (The Scripps Research Institute, priority 2015, dated 2019)
